Measured values from paper PMC6450699 (Archives of biochemistry and biophysics, 2018).

Molecular target: human cytochrome P450 3A4 (CYP3A4) (Homo sapiens, UniProt P08684, C58T/C64A/C98S/F215C/C239S/C468G)
Assay: purified enzyme with CPR: fluorescent HFC production and NADPH consumption
Type: biochemical

Chain of human cytochrome P450 3A4 (CYP3A4) (P08684 13-503 C58T/C64A/C98S/F215C/C239S/C468G): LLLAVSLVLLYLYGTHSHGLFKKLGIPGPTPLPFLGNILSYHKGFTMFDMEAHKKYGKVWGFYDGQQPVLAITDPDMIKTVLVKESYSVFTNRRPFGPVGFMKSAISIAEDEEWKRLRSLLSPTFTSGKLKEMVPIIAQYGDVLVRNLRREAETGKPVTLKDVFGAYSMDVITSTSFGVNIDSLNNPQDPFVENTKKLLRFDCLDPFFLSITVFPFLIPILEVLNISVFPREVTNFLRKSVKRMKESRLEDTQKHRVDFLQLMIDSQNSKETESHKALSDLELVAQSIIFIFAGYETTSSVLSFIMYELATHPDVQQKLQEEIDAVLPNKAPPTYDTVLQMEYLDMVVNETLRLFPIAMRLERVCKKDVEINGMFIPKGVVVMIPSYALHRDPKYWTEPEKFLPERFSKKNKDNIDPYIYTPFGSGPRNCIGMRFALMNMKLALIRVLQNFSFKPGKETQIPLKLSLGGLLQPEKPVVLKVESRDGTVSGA

HFC produced^b: 0.0044 ± 0.0008 μmol/min/μmol enzyme
SMILES: O=c1cc(C(F)(F)F)c2ccc(OCc3ccccc3)cc2o1 [BFC, 7-benzyloxy-4-trifluoromethylcoumarin]
